Results: ChEMBL document CHEMBL5303573, “Mapping human microbiome drug metabolism by gut bacteria and their genes” (Nature, 2019)

Assay: The drug is tested on Bacteroides cellulosilyticus strain: DSM14838 for biotransformation. The drug concentrations were measured before and after a 12-h incubation by liquid-chromatography-coupled mass spectrometry (LC–MS)
Conditions: 2 µM

| Compound | Bacterial Biotransformation |
| --- | --- |
| CCC(=O)NCC[C@@H]1CCc2ccc3c(c21)CCO3 [RAMELTEON] | Compound NOT metabolized |
| CCCCC(=O)O[C@]1(C(=O)CO)[C@@H](C)C[C@H]2[C@@H]3CCC4=CC(=O)C=C[C@]4(C)[C@@]3(F)[C@@H](O)C[C@@]21C [BETAMETHASONE VALERATE] | Compound NOT metabolized |
| O=C(O[C@H]1C[C@H]2CC[C@@H](C1)[N+]21CCCC1)C(O)(c1ccccc1)c1ccccc1.[Cl-] [TROSPIUM CHLORIDE] | Compound NOT metabolized |

Assay: The drug is tested on Eggerthella lenta strain: ATCC25559 for biotransformation. The drug concentrations were measured before and after a 12-h incubation by liquid-chromatography-coupled mass spectrometry (LC–MS)
Conditions: 2 µM

| Compound | Bacterial Biotransformation |
| --- | --- |
| CCC(=O)NCC[C@@H]1CCc2ccc3c(c21)CCO3 [RAMELTEON] | Compound NOT metabolized |
| CCCCC(=O)O[C@]1(C(=O)CO)[C@@H](C)C[C@H]2[C@@H]3CCC4=CC(=O)C=C[C@]4(C)[C@@]3(F)[C@@H](O)C[C@@]21C [BETAMETHASONE VALERATE] | Compound metabolized |
| O=C(O[C@H]1C[C@H]2CC[C@@H](C1)[N+]21CCCC1)C(O)(c1ccccc1)c1ccccc1.[Cl-] [TROSPIUM CHLORIDE] | Compound NOT metabolized |

Conditions: akkermansia muciniphila, 12 h, 2 µM
Description: The drug is tested on Akkermansia muciniphila strain: ATCC BAA-835 for biotransformation. The drug concentrations were measured before and after a 12-h incubation by liquid-chromatography-coupled mass spectrometry (LC–MS)

| Compound | Bacterial Biotransformation |
| --- | --- |
| O=C(O[C@H]1C[C@H]2CC[C@@H](C1)[N+]21CCCC1)C(O)(c1ccccc1)c1ccccc1.[Cl-] [TROSPIUM CHLORIDE] | Compound NOT metabolized |

Conditions: bacteroides fragilis, 12 h, 2 µM
Description: The drug is tested on Bacteroides fragilis strain: NCTC 9343 for biotransformation. The drug concentrations were measured before and after a 12-h incubation by liquid-chromatography-coupled mass spectrometry (LC–MS)

| Compound | Bacterial Biotransformation |
| --- | --- |
| CCC(=O)NCC[C@@H]1CCc2ccc3c(c21)CCO3 [RAMELTEON] | Compound metabolized |
| CCCCC(=O)O[C@]1(C(=O)CO)[C@@H](C)C[C@H]2[C@@H]3CCC4=CC(=O)C=C[C@]4(C)[C@@]3(F)[C@@H](O)C[C@@]21C [BETAMETHASONE VALERATE] | Compound metabolized |
| O=C(O[C@H]1C[C@H]2CC[C@@H](C1)[N+]21CCCC1)C(O)(c1ccccc1)c1ccccc1.[Cl-] [TROSPIUM CHLORIDE] | Compound NOT metabolized |

Assay: The drug is tested on Dorea formicigenerans strain: ATCC27755 for biotransformation. The drug concentrations were measured before and after a 12-h incubation by liquid-chromatography-coupled mass spectrometry (LC–MS)
Conditions: 2 µM

| Compound | Bacterial Biotransformation |
| --- | --- |
| CCC(=O)NCC[C@@H]1CCc2ccc3c(c21)CCO3 [RAMELTEON] | Compound NOT metabolized |
| CCCCC(=O)O[C@]1(C(=O)CO)[C@@H](C)C[C@H]2[C@@H]3CCC4=CC(=O)C=C[C@]4(C)[C@@]3(F)[C@@H](O)C[C@@]21C [BETAMETHASONE VALERATE] | Compound NOT metabolized |
| O=C(O[C@H]1C[C@H]2CC[C@@H](C1)[N+]21CCCC1)C(O)(c1ccccc1)c1ccccc1.[Cl-] [TROSPIUM CHLORIDE] | Compound NOT metabolized |

Assay: The drug is tested on Ruminococcus gnavus strain: ATCC29149 for biotransformation. The drug concentrations were measured before and after a 12-h incubation by liquid-chromatography-coupled mass spectrometry (LC–MS)
Conditions: mediterraneibacter gnavus, 2 µM

| Compound | Bacterial Biotransformation |
| --- | --- |
| CCC(=O)NCC[C@@H]1CCc2ccc3c(c21)CCO3 [RAMELTEON] | Compound NOT metabolized |
| O=C(O[C@H]1C[C@H]2CC[C@@H](C1)[N+]21CCCC1)C(O)(c1ccccc1)c1ccccc1.[Cl-] [TROSPIUM CHLORIDE] | Compound NOT metabolized |

Assay: The drug is tested on Providencia rettgeri strain: DSM1131 for biotransformation. The drug concentrations were measured before and after a 12-h incubation by liquid-chromatography-coupled mass spectrometry (LC–MS)
Type: ADME
Parameters: dose 2 uM, timepoint 0 vs 12 hours
Conditions: 2 µM

| Compound | Bacterial Biotransformation |
| --- | --- |
| CCC(=O)NCC[C@@H]1CCc2ccc3c(c21)CCO3 [RAMELTEON] | Compound NOT metabolized |
| CCCCC(=O)O[C@]1(C(=O)CO)[C@@H](C)C[C@H]2[C@@H]3CCC4=CC(=O)C=C[C@]4(C)[C@@]3(F)[C@@H](O)C[C@@]21C [BETAMETHASONE VALERATE] | Compound NOT metabolized |
| O=C(O[C@H]1C[C@H]2CC[C@@H](C1)[N+]21CCCC1)C(O)(c1ccccc1)c1ccccc1.[Cl-] [TROSPIUM CHLORIDE] | Compound NOT metabolized |

Assay: The drug is tested on Bifidobacterium longum subsp. Infantis strain: CCUG52486 for biotransformation. The drug concentrations were measured before and after a 12-h incubation by liquid-chromatography-coupled mass spectrometry (LC–MS)
Conditions: 2 µM

| Compound | Bacterial Biotransformation |
| --- | --- |
| CCC(=O)NCC[C@@H]1CCc2ccc3c(c21)CCO3 [RAMELTEON] | Compound NOT metabolized |
| O=C(O[C@H]1C[C@H]2CC[C@@H](C1)[N+]21CCCC1)C(O)(c1ccccc1)c1ccccc1.[Cl-] [TROSPIUM CHLORIDE] | Compound NOT metabolized |

Assay: The drug is tested on Collinsella aerofaciens strain: ATCC25986 for biotransformation. The drug concentrations were measured before and after a 12-h incubation by liquid-chromatography-coupled mass spectrometry (LC–MS)
Conditions: 2 µM

| Compound | Bacterial Biotransformation |
| --- | --- |
| CCC(=O)NCC[C@@H]1CCc2ccc3c(c21)CCO3 [RAMELTEON] | Compound NOT metabolized |
| CCCCC(=O)O[C@]1(C(=O)CO)[C@@H](C)C[C@H]2[C@@H]3CCC4=CC(=O)C=C[C@]4(C)[C@@]3(F)[C@@H](O)C[C@@]21C [BETAMETHASONE VALERATE] | Compound NOT metabolized |
| O=C(O[C@H]1C[C@H]2CC[C@@H](C1)[N+]21CCCC1)C(O)(c1ccccc1)c1ccccc1.[Cl-] [TROSPIUM CHLORIDE] | Compound NOT metabolized |

Assay: The drug is tested on Enterococcus faecalis strain: V583 for biotransformation. The drug concentrations were measured before and after a 12-h incubation by liquid-chromatography-coupled mass spectrometry (LC–MS)
Conditions: 2 µM

| Compound | Bacterial Biotransformation |
| --- | --- |
| CCC(=O)NCC[C@@H]1CCc2ccc3c(c21)CCO3 [RAMELTEON] | Compound NOT metabolized |
| CCCCC(=O)O[C@]1(C(=O)CO)[C@@H](C)C[C@H]2[C@@H]3CCC4=CC(=O)C=C[C@]4(C)[C@@]3(F)[C@@H](O)C[C@@]21C [BETAMETHASONE VALERATE] | Compound NOT metabolized |
| O=C(O[C@H]1C[C@H]2CC[C@@H](C1)[N+]21CCCC1)C(O)(c1ccccc1)c1ccccc1.[Cl-] [TROSPIUM CHLORIDE] | Compound NOT metabolized |

Assay: The drug is tested on Bacteroides finegoldii strain: DSM17565 for biotransformation. The drug concentrations were measured before and after a 12-h incubation by liquid-chromatography-coupled mass spectrometry (LC–MS)
Conditions: 2 µM

| Compound | Bacterial Biotransformation |
| --- | --- |
| CCC(=O)NCC[C@@H]1CCc2ccc3c(c21)CCO3 [RAMELTEON] | Compound NOT metabolized |
| CCCCC(=O)O[C@]1(C(=O)CO)[C@@H](C)C[C@H]2[C@@H]3CCC4=CC(=O)C=C[C@]4(C)[C@@]3(F)[C@@H](O)C[C@@]21C [BETAMETHASONE VALERATE] | Compound metabolized |
| O=C(O[C@H]1C[C@H]2CC[C@@H](C1)[N+]21CCCC1)C(O)(c1ccccc1)c1ccccc1.[Cl-] [TROSPIUM CHLORIDE] | Compound NOT metabolized |

Assay: The drug is tested on Clostridium scindens strain: ATCC35704 for biotransformation. The drug concentrations were measured before and after a 12-h incubation by liquid-chromatography-coupled mass spectrometry (LC–MS)
Conditions: 2 µM

| Compound | Bacterial Biotransformation |
| --- | --- |
| CCC(=O)NCC[C@@H]1CCc2ccc3c(c21)CCO3 [RAMELTEON] | Compound NOT metabolized |
| CCCCC(=O)O[C@]1(C(=O)CO)[C@@H](C)C[C@H]2[C@@H]3CCC4=CC(=O)C=C[C@]4(C)[C@@]3(F)[C@@H](O)C[C@@]21C [BETAMETHASONE VALERATE] | Compound metabolized |
| O=C(O[C@H]1C[C@H]2CC[C@@H](C1)[N+]21CCCC1)C(O)(c1ccccc1)c1ccccc1.[Cl-] [TROSPIUM CHLORIDE] | Compound NOT metabolized |

Assay: The drug is tested on Coprococcus comes strain: ATCC27758 for biotransformation. The drug concentrations were measured before and after a 12-h incubation by liquid-chromatography-coupled mass spectrometry (LC–MS)
Type: ADME
Parameters: dose 2 uM, timepoint 0 vs 12 hours
Conditions: 2 µM

| Compound | Bacterial Biotransformation |
| --- | --- |
| CCC(=O)NCC[C@@H]1CCc2ccc3c(c21)CCO3 [RAMELTEON] | Compound NOT metabolized |
| CCCCC(=O)O[C@]1(C(=O)CO)[C@@H](C)C[C@H]2[C@@H]3CCC4=CC(=O)C=C[C@]4(C)[C@@]3(F)[C@@H](O)C[C@@]21C [BETAMETHASONE VALERATE] | Compound metabolized |
| O=C(O[C@H]1C[C@H]2CC[C@@H](C1)[N+]21CCCC1)C(O)(c1ccccc1)c1ccccc1.[Cl-] [TROSPIUM CHLORIDE] | Compound NOT metabolized |

Assay: The drug is tested on Alistipes indistinctus strain: DSM22520 for biotransformation. The drug concentrations were measured before and after a 12-h incubation by liquid-chromatography-coupled mass spectrometry (LC–MS)
Conditions: 2 µM

| Compound | Bacterial Biotransformation |
| --- | --- |
| CCC(=O)NCC[C@@H]1CCc2ccc3c(c21)CCO3 [RAMELTEON] | Compound NOT metabolized |

Conditions: bacteroides intestinalis, 12 h, 2 µM
Description: The drug is tested on Bacteroides intestinalis strain: DSM17393 for biotransformation. The drug concentrations were measured before and after a 12-h incubation by liquid-chromatography-coupled mass spectrometry (LC–MS)

| Compound | Bacterial Biotransformation |
| --- | --- |
| O=C(O[C@H]1C[C@H]2CC[C@@H](C1)[N+]21CCCC1)C(O)(c1ccccc1)c1ccccc1.[Cl-] [TROSPIUM CHLORIDE] | Compound NOT metabolized |

Assay: The drug is tested on Enterobacter cancerogenus strain: ATCC35316 for biotransformation. The drug concentrations were measured before and after a 12-h incubation by liquid-chromatography-coupled mass spectrometry (LC–MS)
Conditions: 2 µM

| Compound | Bacterial Biotransformation |
| --- | --- |
| CCCCC(=O)O[C@]1(C(=O)CO)[C@@H](C)C[C@H]2[C@@H]3CCC4=CC(=O)C=C[C@]4(C)[C@@]3(F)[C@@H](O)C[C@@]21C [BETAMETHASONE VALERATE] | Compound NOT metabolized |
| O=C(O[C@H]1C[C@H]2CC[C@@H](C1)[N+]21CCCC1)C(O)(c1ccccc1)c1ccccc1.[Cl-] [TROSPIUM CHLORIDE] | Compound NOT metabolized |

Conditions: segatella copri, 12 h, 2 µM
Description: The drug is tested on Prevotella copri strain: DSM18205 for biotransformation. The drug concentrations were measured before and after a 12-h incubation by liquid-chromatography-coupled mass spectrometry (LC–MS)

| Compound | Bacterial Biotransformation |
| --- | --- |
| CCC(=O)NCC[C@@H]1CCc2ccc3c(c21)CCO3 [RAMELTEON] | Compound metabolized |
| CCCCC(=O)O[C@]1(C(=O)CO)[C@@H](C)C[C@H]2[C@@H]3CCC4=CC(=O)C=C[C@]4(C)[C@@]3(F)[C@@H](O)C[C@@]21C [BETAMETHASONE VALERATE] | Compound NOT metabolized |
| O=C(O[C@H]1C[C@H]2CC[C@@H](C1)[N+]21CCCC1)C(O)(c1ccccc1)c1ccccc1.[Cl-] [TROSPIUM CHLORIDE] | Compound NOT metabolized |

Assay: The drug is tested on Escherichia coli strain: BW25113 for biotransformation. The drug concentrations were measured before and after a 12-h incubation by liquid-chromatography-coupled mass spectrometry (LC–MS)
Conditions: 2 µM

| Compound | Bacterial Biotransformation |
| --- | --- |
| CCC(=O)NCC[C@@H]1CCc2ccc3c(c21)CCO3 [RAMELTEON] | Compound NOT metabolized |
| CCCCC(=O)O[C@]1(C(=O)CO)[C@@H](C)C[C@H]2[C@@H]3CCC4=CC(=O)C=C[C@]4(C)[C@@]3(F)[C@@H](O)C[C@@]21C [BETAMETHASONE VALERATE] | Compound metabolized |
| O=C(O[C@H]1C[C@H]2CC[C@@H](C1)[N+]21CCCC1)C(O)(c1ccccc1)c1ccccc1.[Cl-] [TROSPIUM CHLORIDE] | Compound NOT metabolized |

Conditions: bifidobacterium adolescentis, 12 h, 2 µM
Description: The drug is tested on Bifidobacterium adolescentis strain: ATCC 15703 for biotransformation. The drug concentrations were measured before and after a 12-h incubation by liquid-chromatography-coupled mass spectrometry (LC–MS)

| Compound | Bacterial Biotransformation |
| --- | --- |
| CCC(=O)NCC[C@@H]1CCc2ccc3c(c21)CCO3 [RAMELTEON] | Compound NOT metabolized |
| O=C(O[C@H]1C[C@H]2CC[C@@H](C1)[N+]21CCCC1)C(O)(c1ccccc1)c1ccccc1.[Cl-] [TROSPIUM CHLORIDE] | Compound NOT metabolized |

Conditions: enterocloster bolteae, 12 h, 2 µM
Description: The drug is tested on Clostridium bolteae strain: ATCCBAA-613 for biotransformation. The drug concentrations were measured before and after a 12-h incubation by liquid-chromatography-coupled mass spectrometry (LC–MS)

| Compound | Bacterial Biotransformation |
| --- | --- |
| CCC(=O)NCC[C@@H]1CCc2ccc3c(c21)CCO3 [RAMELTEON] | Compound NOT metabolized |
| CCCCC(=O)O[C@]1(C(=O)CO)[C@@H](C)C[C@H]2[C@@H]3CCC4=CC(=O)C=C[C@]4(C)[C@@]3(F)[C@@H](O)C[C@@]21C [BETAMETHASONE VALERATE] | Compound metabolized |
| O=C(O[C@H]1C[C@H]2CC[C@@H](C1)[N+]21CCCC1)C(O)(c1ccccc1)c1ccccc1.[Cl-] [TROSPIUM CHLORIDE] | Compound NOT metabolized |
